Laboratory results published in US5066580A, “Xanthene dyes that emit to the red of fluorescein” (priority 1990, dated 1991).
Where two headings read alike, the source gives them in different places.

Legend:
Stability in water = conditions: pH 7
[1] = target: T1, pig liver esterase (E.C. 3.1.1.1) (Sus scrofa, UniProt Q29550); assay: Enzymatic hydrolysis by esterase (Km, Lineweaver-Burk); type: biochemical
T1 sequence (Q29550 19-566): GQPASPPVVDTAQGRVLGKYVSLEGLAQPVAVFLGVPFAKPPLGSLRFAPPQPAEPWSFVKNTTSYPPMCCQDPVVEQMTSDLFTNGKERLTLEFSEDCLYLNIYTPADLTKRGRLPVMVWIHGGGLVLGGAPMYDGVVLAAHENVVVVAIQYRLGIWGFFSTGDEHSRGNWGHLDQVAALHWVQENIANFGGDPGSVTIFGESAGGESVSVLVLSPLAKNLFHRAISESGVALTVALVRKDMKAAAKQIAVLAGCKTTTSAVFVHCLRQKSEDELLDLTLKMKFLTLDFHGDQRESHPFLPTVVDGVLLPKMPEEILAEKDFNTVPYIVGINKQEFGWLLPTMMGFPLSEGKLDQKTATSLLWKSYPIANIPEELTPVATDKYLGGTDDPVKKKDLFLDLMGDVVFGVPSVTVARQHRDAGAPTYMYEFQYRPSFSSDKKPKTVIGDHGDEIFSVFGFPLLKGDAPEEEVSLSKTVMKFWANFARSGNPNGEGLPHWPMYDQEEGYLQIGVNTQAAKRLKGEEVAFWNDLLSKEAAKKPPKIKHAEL

human white blood cells = assay: Staining of lysed whole blood, fluorescence by flow cytometry; type: cell-based
Protocol: (§1) After characterizing the various xanthene dyes prepared in accordance with this invention, one of the dyes (VBDB) was used to stain cells. The ability of VBDB to stain cells was compared with BCECF-AM, a membrane permeable esterase substrate (Molecular Probes) and fluorescein diacetate (FDA). […] After incubation, the tube was centrifuged. This procedure specifically lyses red blood cells leaving the white cells intact and viable. The supernatant was removed and the white blood cells which remained were washed twice and resuspended in blood cell diluent (1 mL, Diagnostic Technology, Inc.). The cell concentration and the percentage of dead cells were ascertained by counting the cells manually using a fluorescent microscope and a hemacytometer; acridine orange and ethidium bromide were used to stain live and dead cells respectively.
(§2) Four samples of approximately 1.7×10^6 cells then were placed in polystyrene tubes. To each tube was added one of the following solutions (1 mL): FDA (1 uM) BCECF-AM (1 uM), VBDB (0.8 uM), or VBDB (8.0 uM). The dye solutions were prepared by diluting a stock solution of each dye (1-8 mM in DMSO) into blood cell diluent. The tubes were kept at room temperature for 30 minutes. The samples were washed three times and resuspended in blood cell diluent (1 mL).
(§3) A bandpass 530/30 emission filter was used for both FDA and BCECF-AM, while a bandpass 660/20 emission filter was used for VBDB. Data from 10,000 events were acquired from each of these samples immediately after staining, one hour after staining, and two hours after staining.
(§4) Referring to FIG. 2, VBDB, BCECF-AM and FDA were compared as vital dyes by staining lysed whole blood and examining the fluorescence by flow cytometry. […] Four samples of cells were incubated with BCECF AM (1 uM), FDA (1 uM) and VBDB (0.8 uM, 8.0 uM). The cells were analyzed immediately after staining (t=0), after one hour (t=1) and after two hours (t=2).
(§5) The data in FIG. 2 also was used to quantitate the "live" cells and the "dead" cells. […] It was assumed the live cells were those cells which retained the dye (the right peak) and that dead cells were those cells whose membranes had become leaky (the left peak). By setting the gate to the immediate left of the main peak, the "dead" cells to the left of the gate were counted.

[2] = as above; type: cell-based, human; conditions: human, white blood cells
Protocol: as §1, §2, §3, §4, §5

[3] = Absorbance maximum and extinction coefficient; type: physicochemical; conditions: for ε (extinction coefficient): pH 7.2, at 480 nm
Protocol: First, the extinction coefficient of compounds 1-9 and 14 was determined. Stock solutions (5×10^-3 M) of each dye were made by dissolving the dye in two equivalents of 0.1 N NaOH and making up the volume with carbonate/bicarbonate buffer (0.16, 0.34 M, pH 9.5). The solution was diluted ([…]) in additional buffer (final pH 9.5-10) and the absorbance spectrum measured. A stock solution (1.2×10^-3 M) of Vita Blue was prepared in DMSO, diluted into citrate buffer (0.1 M, pH 5 2) to give a final concentration of 1.6×10^-5 M and the absorbance spectrum measured. A stock solution (8.2×10^-3 M) of VBDB was prepared in DMSO and diluted into pyrophosphate buffer (0.1 M, pH 7.2) to give a final concentration of 8.1×10^-5 M and the absorbance spectrum measured on a Beckman model DU-6UV visible spectrophotometer.
(§6) Finally, the spectral characteristics of compounds 1-9 was determined. The extinction coefficients and quantum yields or compounds 1-9 were determined at pH 9.5. The extinction coefficient and quantum yield of monoprotonated Vita Blue was also determined at pH 5.2. The extinction coefficient and the quantum yield of VBDB were determined at pH 7.2.

[4] = Fluorescence emission maximum and quantum yield; type: physicochemical
Protocol: Second, quantum yields of compounds 1-9 and 14 were measured. Solutions (1×10^-6 M) of compounds 1-9 were prepared in carbonate/ bicarbonate buffer (pH 9.5). Fluorescence emission spectra were measured on a Perkin-Elmer MPF-2A fluorescence spectrophotometer in 3-mL disposable plastic cuvettes. The excitation wavelength was set 30 nm to the red of the maximum excitation wavelength and the emission spectra measured. The area under the emission spectrum was measured (F). The quantum yield (.PHI.) was determined using the following equation, F-kIo .PHI.εcb, where F is the fluorescence, k is a fluorimeter constant, Io is the light intensity at the exciting wavelength, ε is the extinction coefficient at the exciting wavelength, c is the concentration of the dye, and b is the pathlength of the cuvette. The value of k was determined for three different emission wavelength regions by using literature values of .PHI. and measuring the fluorescence of fluorescein (470-670 nm, .PHI.=0.92), eosin (500-700 nm, .PHI.=0.19) and allophycocyanin (Applied BioSystems, 600-800 nm, .PHI.=0.68). The value of Io was determined from a table that was generated by scanning the range of exciting wavelengths on the fluorescence spectrophotometer with the emission monochrometer open; a piece of white paper was placed in the sample holder to reflect the exciting light. The concentration of the dyes were 0.6-1.0 uM; this value in each case was below the concentration ([…]) required in order for the equation to be valid.
as §6

[5] = Membrane permeability of diacetates; conditions: diacetate esters
[6] = pH 7
[7] = not told

CCCC(=O)Oc1ccc2c3c(ccc2c1)C1(OS(=O)(=O)c2ccccc21)c1ccc2cc(OC(=O)CCC)ccc2c1O3 [Compound 14, Vita Blue dibutyrate]
stability in water (Stability in water): relatively stable in water at pH 7
esterase substrate [1]: good substrate
specific activity ([1]; pH 8.0): 2.5 (ug substrate) (min)^-1 (mg enzyme)^-1
retention of initial fluorescence by stained cells over time (human white blood cells; 0.8 uM dye): maintained their initial fluorescence
coefficient of variation (CV) in the fluorescence histogram (human white blood cells; 0.8 uM, t=0): 39%
coefficient of variation (CV) in the fluorescence histogram (human white blood cells; 0.8 uM, t=1 h): 43%
coefficient of variation (CV) in the fluorescence histogram (human white blood cells; 0.8 uM, t=2 h): 46%
retention of initial fluorescence by stained cells over time (human white blood cells; 8 uM dye, after one hour): actually increased their fluorescence slightly after one hour
coefficient of variation (CV) in the fluorescence histogram (human white blood cells; 8 uM, t=0): 30%
coefficient of variation (CV) in the fluorescence histogram (human white blood cells; 8 uM, t=1 h): 35%
coefficient of variation (CV) in the fluorescence histogram (human white blood cells; 8 uM, t=2 h): 34%
number of leaky cells, comparison of BCECF and VBDB (human white blood cells; after two hours, higher VBDB concentration): the same number of "leaky" cells after two hours
deleterious effect on cells (human white blood cells; higher concentration (8 uM)): did not seem to be deleterious to the cells
percentage of dead (leaky) cells at 0 h, 0.8 µM ([2]; 0.8 uM, t=0): 14%
percentage of dead (leaky) cells at 1 h, 0.8 µM ([2]; 0.8 uM, t=1 h): 18%
percentage of dead (leaky) cells at 2 h, 0.8 µM ([2]; 0.8 uM, t=2 h): 20%
percentage of dead (leaky) cells at 8 µM ([2]; 8 uM, second value, printed t=2): 17%
percentage of dead (leaky) cells at 0 h, 8 µM ([2]; 8 uM, t=0): 12%
percentage of dead (leaky) cells at 2 h, 8 µM ([2]; 8 uM, t=2 h): 22%
Abs Max ([3]; pH 7.2): 480 nm
ε (extinction coefficient) [3]: 5900 M⁻¹ cm⁻¹
ε (extinction coefficient) ([3]; listed as dibutyrate derivative of compound 9): 5900 M⁻¹ cm⁻¹
excitation maximum [4]: 480 nm
EM Max ([4]; pH 7.2): 552 nm
Quantum Yield ([4]; pH 7.2): 0.03
EM Max ([4]; pH 7.2, listed as dibutyrate derivative of compound 9): 550 nm

CC(=O)Oc1ccc2c3c(ccc2c1)C1(OS(=O)(=O)c2ccccc21)c1ccc2cc(OC(C)=O)ccc2c1O3 [Diacetate ester of compound 9, Vita Blue diacetate]
esterase substrate [1]: esterase substrates
membrane permeability [5]: neither diacetates were membrane permeable

Sulfonefluorescein diacetate [Diacetate ester of compound 2]
esterase substrate [1]: esterase substrates
stability in water [6]: relatively stable in water at pH 7
membrane permeability [7]: neither diacetates were membrane permeable
